Broadly, the IC50 is the point on the concentration scale where inhibition reaches its midpoint. Higher therefore signals lower potency.

Drawing on patent publication US12516038B2, “Inhibitors of antigen presentation by HLA-DR” (Janssen Pharmaceutica NV, priority 2020, dated 2026), this text covers IC50 for seven compounds.

Assay [1] deals with human peripheral blood CD4+ helper T cells. Nature of the assay: Pan-CD4+ T cell activation (off-target assay). The assay is classed as cell-based. As to conditions: Homo sapiens, T-cell, 24 h, anti-CD3/anti-CD28 stimulation, IL-2 production by ELISA. The procedure, abridged:
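Human peripheral blood CD4+ T cells, with no APCs present, were stimulated with plate-bound anti-CD3 (1 μg/mL coating) plus soluble anti-CD28 (1 μg/mL) in the presence of compound or vehicle for 24 h. IL-2 in the supernatant was quantified by ELISA.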
A general note: An ELISA detects its analyte on a solid surface through an enzyme-linked reagent.

For assay [2], the target named is HLA-DRB1*0401 (Homo sapiens (Human), UniProt P01903+P01911, A100K/A169T/DEL228-266/F76Y/I96L/K127E/L162R/M171V/N62H/P40V/Q125Y/R42H/S133A/S149N/S66Y/V115G/V209L/W38E). Nature of the assay: HLA-DR4 HTRF assay. The assay is classed as binding. The conditions noted are these: inhibition of loading of Alexa Fluor 647-labeled Cit-CII peptide onto HLA-DR4 (CLIP cleaved). The procedure, abridged:
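HLA-DRB1*04:01 construct (α/β fused to human Fc, CLIP pre-cleaved by HRV3C overnight at 4° C) at 3 nM was preincubated 45 min with compound and 1 nM anti-Fc-Tb donor, then 40 nM Alexa647-Cit-CII1236-1249 peptide added. After 90 min at 37° C, the 665/620 nm HTRF ratio gave % inhibition; IC50 by nonlinear regression.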
On the technique in general: In TR-FRET formats the signal depends on donor and acceptor labels being close together.

Assay [3] has as its system HLA-DR4 restricted mouse T cell hybridoma line (DR4.CII.36.8) with HLA-DRB1*04:01-expressing Boleth cells. Nature of the assay: HLA-DR4-restricted peptide-specific T cell-based assay (hybridoma assay). As to conditions: Mus musculus, T-cell, 6 h, inhibition of IL-2 production, CII259-273 peptide presented by Boleth cells. In a few lines: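 Boleth cells (HLA-DRB1*04:01 B cell line) pre-incubated with compound 1 h at 37° C. in DMEM/1% FCS, then DR4.CII.36.8 mouse T cell hybridoma (CII259-273-specific) added for 6 h with CII259-273 peptide. Supernatant mouse IL-2 by AlphaLISA; IC50 by 4-PL fit of 8-point duplicate titrations.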

Turning to `Cc1cc([C@@H](Oc2ccc3c(c2C)OCCC3=O)c2ccc(C(N)=O)cc2)cc(C)n1` (single isomer, unassigned) [Example 111b, (*S)-4-((2,6-dimethylpyridin-4-yl)((8-methyl-4-oxochroman-7-yl)oxy)methyl)benzamide], the half-maximal inhibitory concentration (IC50) in assay [1] is 4.8 µM; in assay [2] it was 0.56 µM; in assay [3], 0.021 µM.
Taken in the same sequence, the figures for `O=C1CCOc2cc(O[C@H](c3ccccc3)c3ccncc3)ccc21` (single isomer, unassigned) [Example 114a, (*R)-7-(phenyl(pyridin-4-yl)methoxy)chroman-4-one] were over 15 µM, 1.4 µM and 5.5 µM.
Regarding `O=C1CCOc2cc(O[C@@H](c3ccccc3)c3ccncc3)ccc21` (single isomer, unassigned) [Example 114b, (*S)-7-(phenyl(pyridin-4-yl)methoxy)chroman-4-one], the IC50 in assay [1] is 4.7 µM; in assay [2] it was 1.3 µM; in assay [3], 3 µM.
On to `CC[C@@H]1CC(=O)c2ccc(OCc3ccnc(C)c3)cc2O1` (single isomer, unassigned) [Example 118a, (*R)-2-ethyl-7-((2-methylpyridin-4-yl)methoxy)chroman-4-one], for which the IC50 in assay [1] is over 15 µM; in assay [2], 0.96 µM; in assay [3] it was 7.5 µM.
Regarding `CC[C@H]1CC(=O)c2ccc(OCc3ccnc(C)c3)cc2O1` (single isomer, unassigned) [Example 118b, (*S)-2-ethyl-7-((2-methylpyridin-4-yl)methoxy)chroman-4-one], the half-maximal inhibitory concentration (IC50) in assay [1] was over 15 µM; in assay [2], 0.99 µM; in assay [3] it was 12 µM.
For `Cc1c(O[C@H]2CCc3cc(C(N)=O)ccc32)ccc2c1OCCC2=O` (single isomer, unassigned) [Example 121b, (*S)-1-((8-methyl-4-oxochroman-7-yl)oxy)-2,3-dihydro-1H-indene-5-carboxamide], the IC50 in assay [1] was over 15 µM; in assay [2], 0.83 µM; in assay [3], 14 µM.
Turning to `NC(=O)c1ccc([C@@H](Oc2ccc3c(c2)OCC(c2ccccc2)C3=O)c2ccncc2)cc1` (stereo in doubt) [Example 47, 4-((1*R)-((4-Oxo-3-phenylchroman-7-yl)oxy)(pyridin-4-yl)methyl)benzamide], the IC50 in assay [1] worked out at 9.9 µM; in assay [2] it was 6.5 µM; in assay [3] it was 0.6 µM.
